According to patent US8227414B2 ([…].R.L., priority 2005, dated 2012):
Like-named read-outs stand apart in the source and are kept apart here. Ends that are not written are not given here. Peptide text beside a SMILES is read from it.

Tests used:
[1] = tested on: mouse vas deferens; assay: Inhibition of the twitch induced by electrical stimulation of mouse vas deferens; assay type: cell-based; details: for Inhibition of the twitch induced by electric stimulation, Antagonist pA2: against N/OFQ; for Functional behaviour in mouse vas deferens: compared with N/OFQ maximal effect
Procedure: The compounds were tested in vitro on Hamster oocytes membranes expressing the human recombinant NOP receptor (CHOhNoP) (receptor binding experiments and GTP?S binding stimulation experiments) and on the mouse vas deferens after electrical stimulation.

[2] = molecular target: T1, human recombinant opioid receptor delta (DOP) (Homo sapiens, UniProt P41143); assay: Receptor binding on CHO membranes, [3H]-Diprenorphine
T1 construct: expressed in transfected cells; host or cells: CHO cells, membranes
T1 sequence (P41143 whole entry): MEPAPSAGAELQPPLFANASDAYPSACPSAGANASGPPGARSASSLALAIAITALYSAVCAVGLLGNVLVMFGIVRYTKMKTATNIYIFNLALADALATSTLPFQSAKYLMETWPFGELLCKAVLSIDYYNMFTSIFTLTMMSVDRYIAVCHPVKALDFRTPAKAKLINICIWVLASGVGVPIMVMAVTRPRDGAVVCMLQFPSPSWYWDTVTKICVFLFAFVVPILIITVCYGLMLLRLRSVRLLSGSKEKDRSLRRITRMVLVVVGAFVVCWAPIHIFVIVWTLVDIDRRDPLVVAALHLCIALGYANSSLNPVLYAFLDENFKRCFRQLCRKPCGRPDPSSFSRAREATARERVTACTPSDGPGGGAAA

[3] = molecular target: T2, human recombinant NOP receptor (Homo sapiens, UniProt P41146); assay: Stimulation of GTP?S binding on CHOhNOP membranes; assay type: biochemical; details: for Functional behaviour in GTP?S binding: compared with N/OFQ maximal effect
T2 construct: expressed in transfected cells; host or cells: CHO cells (CHOhNOP), membranes
T2 sequence (P41146 whole entry): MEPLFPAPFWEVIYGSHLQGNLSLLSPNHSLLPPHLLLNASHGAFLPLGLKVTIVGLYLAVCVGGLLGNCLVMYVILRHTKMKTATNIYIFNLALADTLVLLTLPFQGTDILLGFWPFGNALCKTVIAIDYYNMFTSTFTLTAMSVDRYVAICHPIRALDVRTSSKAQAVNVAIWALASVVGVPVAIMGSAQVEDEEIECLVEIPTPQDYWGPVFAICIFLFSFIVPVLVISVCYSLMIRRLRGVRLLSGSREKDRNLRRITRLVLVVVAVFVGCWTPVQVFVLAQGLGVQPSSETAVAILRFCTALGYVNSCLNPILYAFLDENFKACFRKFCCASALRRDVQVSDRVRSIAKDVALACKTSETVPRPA

[4] = Metabolic stability in mouse plasma; assay type: in vitro ADME; details: for half-life at 6 μg/μl: male, Swiss, mouse, plasma, pH 7.4, mouse plasma; for Plasma T½ compared to N/OFQ: mouse plasma
Procedure: (§1) Plasma and brain tissue samples were obtained from male Swiss mice (Morini, Reggio Emilia, Italy, 25-30 g). The animal, sacrificed by ether anesthesia, was perfused with physiological heparin solution injected through a needle placed in the left ventricle. Blood was then withdrawn and was centrifuged at 14000×g for 2 minutes at room temperature. After separation from the pellet, the plasma was aliquoted and stocked at −80° C. After blood withdrawal, the animal was perfused further with a physiological solution for 2 minutes before brain removal. The brain tissue was homogenized in 5 vol. (w/v) of Tris/HCl (50 mM, pH 7.4, 0° C.) with a ultra-Turrax (Janke Kunkel, Staufen, FRG) 3 times for 15 seconds each. The supernatant obtained by centrifugation (3000×g for 15 min at 4° C.) was decanted and then stocked at −80° C.
(§2) The protein content of the preparations, determined by the Bradford method, as described in Anal. Biochem., 72, 248-254, 1976, was approximately 8 μg/μl for the brain homogenate and 17 μg/μl for the plasma
(§3) An aliquot of 100 μl solution of each peptide (3 mg/500 μl Tris) was incubated (at a final concentration of […]) with brain homogenate or plasma (450 μl) in a total volume of 1 ml, containing Tris/HCl 50 mM pH 7.4 buffer. Incubation of the aliquots was carried out at 37° C. for various periods up to 240 min. At different incubation times, an aliquot of the solution (100 μl) was removed and the degradation was blocked by addition of 4.5% TFA solution (200 μl). After centrifugation (3000 rpm for 15 minutes) an aliquot (100 μl) of supernatant was injected into RP-HPLC. HPLC analysis was performed in a Kromasil 100-5C18 column (4.6×250 mm) using a Beckman System Gold chromatography system equipped with a variable wave length UV detector.
(§4) The experimental conditions for elution included a gradient analysis with water (solvent A) and acetonitrile (solvent B), both containing 0.1% TFA, at a flow rate of 0.7 ml/min. The following protocol was used for gradient analysis, selected on the basis of the physico-chemical characteristics of the analyte: linear gradient from 5% to 40% B in 20 minutes; linear gradient from 40% to 60% B in 5 minutes; linear gradient from 60% to 5% B in 5 minutes. The eluate was monitored at 220 nm. The half life (T1/2) was obtained by linear regression with the least square method, diagramming the peak areas of each derivative as a function of the incubation times, using at least five points for each analysis.

[5] = Metabolic stability in mouse brain homogenate; assay type: in vitro ADME; details: male, Swiss, pH 7.4, mouse brain homogenate, 37° C., mean±standard deviation, read-out: T½ Brain
Procedure: as §1, §2, §3, §4

[6] = molecular target: T3, human recombinant opioid receptor mu (MOP) (Homo sapiens, UniProt P35372); assay: Receptor binding on CHO membranes, [3H]-Diprenorphine
T3 construct: expressed in transfected cells; host or cells: CHO cells, membranes
T3 sequence (P35372 whole entry): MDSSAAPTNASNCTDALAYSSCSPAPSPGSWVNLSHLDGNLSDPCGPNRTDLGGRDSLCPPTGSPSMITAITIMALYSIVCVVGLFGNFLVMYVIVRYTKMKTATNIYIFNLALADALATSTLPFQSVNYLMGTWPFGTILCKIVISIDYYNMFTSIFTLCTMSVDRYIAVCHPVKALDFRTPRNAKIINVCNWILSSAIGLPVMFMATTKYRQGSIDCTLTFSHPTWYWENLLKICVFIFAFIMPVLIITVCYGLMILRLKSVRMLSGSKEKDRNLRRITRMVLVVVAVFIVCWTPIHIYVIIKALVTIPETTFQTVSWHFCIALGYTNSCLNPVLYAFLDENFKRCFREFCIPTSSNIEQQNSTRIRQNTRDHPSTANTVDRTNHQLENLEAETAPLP

[7] = molecular target: T4, human recombinant NOP receptors expressed in HEK293 cells (Homo sapiens, UniProt P41146); details: Okada et al. 2000; cited from earlier work
T4 construct: host or cells: HEK293 cells
T4 sequence (P41146 whole entry): as the sequence (P41146 whole entry) above

[8] = molecular target: T2, human recombinant NOP receptor; assay: Receptor binding, displacement of tritiated N/OFQ on CHOhNOP membranes; details: Receptor binding PKi, Table 1; membrane of CHOhNOP cells; tritiated N/OFQ
[9] = tested on: vas deferens of knockout mice for the NOP receptor (NOP−/−); assay: Electrically stimulated vas deferens from NOP receptor knockout mice; assay type: cell-based, mouse; details: Table 2
[10] = tested on: mice; assay: Food intake in fed mice; assay type: in vivo, mouse
From the text: 2) measurement of food intake in fed animals, as described by Rizzi et al. (National Congress of the Italian Society of Neuroscience and joint Italian-Swedish Neuroscience Meetings, Ischia (Napoli) 1-4 Oct. 2005);

[11] = tested on: mice; assay: Spontaneous locomotor activity in mice; assay type: in vivo, mouse
Procedure: Control animals received one i.c.v. injection of saline (2 μl/mouse). Each point represents the mean±s.e.m. of at least 4 experiments.
3) assay for measurement of spontaneous locomotor activity, as described by Rizzi et al., (Naunyn Schmiedebergs Arch Pharmacol 363, 161-165, 2001.

[12] = 37° C., mean±standard deviation, read-out: T½ Plasma
[13] = Table 2, wild type (NOP+/+) mice

N/OFQ-NH2 (FGGFTGARKSARKLANQ-NH2; UniProt Q13519 130-146, looked up) [reference compound]
Emax [1]: 93 ± 2%

[(aMe)D/L-Leu^7]N/OFQ-NH2 [[(aMe)D/L-Leu^7]N/OFQ-NH2 (diastereomer 1)]
Emax ([1]; Table 4): 84 ± 1%
pEC50 (CL 95%) ([1]; Table 4): 7.33 (7.04-7.62)

[Dpg^7]N/OFQ-NH2
Emax ([1]; Table 4): 91 ± 4%
pEC50 (CL 95%) ([1]; Table 4): 7.90 (7.71-8.11)

[Ac3c^7]N/OFQ-NH2
Emax ([1]; Table 4): 98 ± 1%
pEC50 (CL 95%) ([1]; Table 4): 7.08 (6.82-7.34)

C[C@H](NC(=O)[C@H](CO)NC(=O)[C@H](CCCCN)NC(=O)[C@H](CCCNC(=N)N)NC(=O)C(C)(C)NC(=O)CNC(=O)[C@@H](NC(=O)[C@H](Cc1ccccc1)NC(=O)CNC(=O)CNC(=O)CNCc1ccccc1)[C@@H](C)O)C(=O)N[C@@H](CCCNC(=N)N)C(=O)N[C@@H](CCCCN)C(=O)N[C@@H](CCCNC(=N)N)C(=O)N[C@@H](CCCCN)C(=O)N[C@@H](CC(N)=O)C(=O)N[C@@H](CCC(N)=O)C(N)=O [UFP-111, [Nphe^1,Aib^7,Arg^14,Lys^15]N/OFQ-NH2]
Ki [2]: > 10000 nM
Kb [3]: 2.09 nM
Stimulation upon binding GTP?S, Agonist pEC50 ([3]; Table 1, membrane of CHOhNOP cells): Inactive
Functional behaviour in GTP?S binding [3]: competitive antagonist
half-life at 6 μg/μl [4, 12]: 2.28 ± 0.0667 h
Plasma T½ compared to N/OFQ [4]: about twice as long
half-life at 6 μg/μl [5]: 0.183 ± 0.0317 h
Ki [6]: > 10000 nM
Inhibition of the twitch induced by electric stimulation, Agonist pEC50 ([1]; Table 1): Inactive
Inhibition of the twitch induced by electric stimulation, Antagonist pA2 ([1]; Table 1): 7.46
Functional behaviour in mouse vas deferens [1]: competitive antagonist

[Ac5c^11]N/OFQ-NH2
Emax ([1]; Table 4): 89 ± 4%
pEC50 (CL 95%) ([1]; Table 4): 8.08 (7.93-8.23)

[Arg^14,Lys^15]N/OFQ
Potency relative to N/OFQ [7]: 17 fold

[Ac6c^11]N/OFQ-NH2
Emax ([1]; Table 4): 89 ± 4%
pEC50 (CL 95%) ([1]; Table 4): 7.79 (7.53-8.05)

[Dpg^11]N/OFQ-NH2
Emax ([1]; Table 4): 86 ± 3%
pEC50 (CL 95%) ([1]; Table 4): 7.53 (7.17-8.04)

[Ac5c^7]N/OFQ-NH2
Emax ([1]; Table 4): 98 ± 1%
pEC50 (CL 95%) ([1]; Table 4): 7.60 (7.40-7.80)

[(aMe)D/L-Val^11]N/OFQ-NH2 [[(aMe)D/L-Val^11]N/OFQ-NH2 (diastereomer 2)]
Emax ([1]; Table 4): 86 ± 4%
pEC50 (CL 95%) ([1]; Table 4): 7.83 (7.67-7.99)

C[C@H](NC(=O)[C@H](CO)NC(=O)[C@H](CCCCN)NC(=O)[C@H](CCCNC(=N)N)NC(=O)C(C)(C)NC(=O)CNC(=O)[C@@H](NC(=O)[C@H](Cc1ccc(F)cc1)NC(=O)CNC(=O)CNC[C@@H](N)Cc1ccccc1)[C@@H](C)O)C(=O)N[C@@H](CCCNC(=N)N)C(=O)N[C@@H](CCCCN)C(=O)N[C@@H](CCCNC(=N)N)C(=O)N[C@@H](CCCCN)C(=O)N[C@@H](CC(N)=O)C(=O)N[C@@H](CCC(N)=O)C(N)=O [UFP-113, [Phe^1?(CH2—NH)Gly^2,(pF)Phe^4,Aib^7,Arg^14,Lys^15]N/OFQ-NH2] (HELM PEPTIDE1{[N[C@H](CNCC(=O)[*:2])Cc1ccccc1].G.[O=C([C@H](Cc1ccc(F)cc1)N[*:1])[*:2]].T.G.[Aib].R.K.S.A.R.K.R.K.N.Q.[am]}$$$$V2.0)
Ki [8]: 0.055 nM
EC50 [3]: 0.191 nM
Functional behaviour in GTP?S binding [3]: partial NOP receptor agonist
Emax ([3]; read-out: Stimulation upon binding GTP?S, Agonist Emax): 79 ± 3%
half-life at 6 μg/μl [4, 12]: 1.83 ± 0.167 h
Plasma T½ compared to N/OFQ [4]: about twice as long
half-life at 6 μg/μl [5]: 0.205 ± 0.0133 h
Inhibition of the twitch induced by electric stimulation, Agonist pEC50 ([1]; Table 1): Variable agonist effects
Inhibition of the twitch induced by electric stimulation, Antagonist pA2 ([1]; Table 1): 9.28
Functional behaviour in mouse vas deferens [1]: partial NOP receptor agonist

[Ac3c^11]N/OFQ-NH2
Emax ([1]; Table 4): 91 ± 4%
pEC50 (CL 95%) ([1]; Table 4): 7.78 (7.62-7.94)

[Iva^7]N/OFQ-NH2 [[Iva^7]N/OFQ-NH2 (diastereomer 1)]
Emax ([1]; Table 4): 91 ± 4%
pEC50 (CL 95%) ([1]; Table 4): 7.83 (7.74-7.92)

[(aMe)D/L-Val^7]N/OFQ-NH2 [[(aMe)D/L-Val^7]N/OFQ-NH2 (diastereomer 1)]
Emax ([1]; Table 4): 88 ± 1%
pEC50 (CL 95%) ([1]; Table 4): 7.26 (7.00-7.52)

DPDPE [[D-Pen^2,D-Pen^5]-Enkephalin, reference compound]
Emax NOP−/− [9]: 91 ± 5%
pEC50 NOP−/− [9]: 8.20
Emax NOP+/+ [1, 13]: 93 ± 3%
pEC50 NOP+/+ [1, 13]: 8.40

[Ac6c^7]N/OFQ-NH2
Emax ([1]; Table 4): 87 ± 1%
pEC50 (CL 95%) ([1]; Table 4): 7.20 (6.86-7.54)

[Iva^7]N/OFQ-NH2 [[Iva^7]N/OFQ-NH2 (diastereomer 2)]
Emax ([1]; Table 4): 88 ± 3%
pEC50 (CL 95%) ([1]; Table 4): 7.62 (7.32-7.92)

[(aMe)D/L-Val^7]N/OFQ-NH2 [[(aMe)D/L-Val^7]N/OFQ-NH2 (diastereomer 2)]
Emax ([1]; Table 4): 95 ± 1%
pEC50 (CL 95%) ([1]; Table 4): 7.56 (7.34-7.78)

[Deg^11]N/OFQ-NH2
Emax ([1]; Table 4): 87 ± 4%
pEC50 (CL 95%) ([1]; Table 4): 7.75 (7.43-7.89)

[(aMe)D/L-Leu^11]N/OFQ-NH2
Emax ([1]; Table 4): 91 ± 4%
pEC50 (CL 95%) ([1]; Table 4): 7.87 (7.67-8.07)

[Deg^7]N/OFQ-NH2
Emax ([1]; Table 4): 89 ± 2%
pEC50 (CL 95%) ([1]; Table 4): 7.91 (7.53-8.27)

[Nphe1,Arg14,Lys15]N/OFQ-NH2 (XGGFTGARKSARKRKNQ; Nphe1, C-terminal amide; Synthetized. Featured in patent as UFP-101, ref. Calòet al. Br J Pharmacol 136, 303-311, 2002) [reference compound]
pA2 in competition with the endogenous agonist N/OFQ ([1]; agonist N/OFQ): 6.91
pA2 in competition with UFP-112 ([1]; agonist UFP-112): 6.81

[(aMe)D/L-Leu^7]N/OFQ-NH2 [[(aMe)D/L-Leu^7]N/OFQ-NH2 (diastereomer 2)]
Emax ([1]; Table 4): 95 ± 2%
pEC50 (CL 95%) ([1]; Table 4): 7.12 (7.02-7.22)

CC(C)C[C@H](NC(=O)[C@H](CCCCN)NC(=O)[C@H](CCCNC(=N)N)NC(=O)[C@H](C)NC(=O)[C@H](CO)NC(=O)[C@H](CCCCN)NC(=O)[C@H](CCCNC(=N)N)NC(=O)[C@H](C)NC(=O)CNC(=O)[C@@H](NC(=O)[C@H](Cc1ccccc1)NC(=O)CNC(=O)CNC(=O)[C@@H](N)Cc1ccccc1)[C@@H](C)O)C(=O)N[C@@H](C)C(=O)N[C@@H](CC(N)=O)C(=O)N[C@@H](CCC(N)=O)C(=O)O [N/OFQ, reference compound]
half-life at 6 μg/μl [4, 12]: 1.07 ± 0.0167 h
half-life at 6 μg/μl ([4]; read-out: Half life in the plasma (converted)): ~1 h
half-life at 6 μg/μl [5]: ~0.05 h
Hyperphagic effects in NOP−/− mice ([10]; NOP−/− mice): absent
Effect on food intake ([10]; fed mice, equi-effective doses): significant increase
Time after i.c.v. injection at which locomotor effect ended ([11]; 10 nmol i.c.v.): 60 min
Effect on spontaneous locomotor activity ([11]; i.c.v., N/OFQ 10 nmol, UFP-112 0.1 nmol): inhibited the locomotor activity
Inhibition of the twitch induced by electric stimulation, Agonist Emax ([1]; Table 1): −84 ± 3%
Inhibition of the twitch induced by electric stimulation, Agonist pEC50 ([1]; Table 1): 7.39
Emax NOP+/+ [1, 13]: 84 ± 4%

[(aMe)D/L-Val^11]N/OFQ-NH2 [[(aMe)D/L-Val^11]N/OFQ-NH2 (diastereomer 1)]
Emax ([1]; Table 4): 93 ± 2%
pEC50 (CL 95%) ([1]; Table 4): 7.71 (7.37-8.05)
